The record followed here is US20060074243A1, “Hydroxamic acid and amide compounds and their use as protease inhibitors” (Pharmacia Corporation, priority 2002, published 2006).

Common to all, as to assay: In vitro MMP inhibition analysis (fluorogenic peptide substrate cleavage), Ki
What all share (type): biochemical

For one assay, the target named is T1, Human recombinant MMP-2 (Homo sapiens, UniProt P08253).
T1 construct: made in house; host or cells: MMP-2-transfected p2AHT2 cells
T1 sequence (P08253 110-660): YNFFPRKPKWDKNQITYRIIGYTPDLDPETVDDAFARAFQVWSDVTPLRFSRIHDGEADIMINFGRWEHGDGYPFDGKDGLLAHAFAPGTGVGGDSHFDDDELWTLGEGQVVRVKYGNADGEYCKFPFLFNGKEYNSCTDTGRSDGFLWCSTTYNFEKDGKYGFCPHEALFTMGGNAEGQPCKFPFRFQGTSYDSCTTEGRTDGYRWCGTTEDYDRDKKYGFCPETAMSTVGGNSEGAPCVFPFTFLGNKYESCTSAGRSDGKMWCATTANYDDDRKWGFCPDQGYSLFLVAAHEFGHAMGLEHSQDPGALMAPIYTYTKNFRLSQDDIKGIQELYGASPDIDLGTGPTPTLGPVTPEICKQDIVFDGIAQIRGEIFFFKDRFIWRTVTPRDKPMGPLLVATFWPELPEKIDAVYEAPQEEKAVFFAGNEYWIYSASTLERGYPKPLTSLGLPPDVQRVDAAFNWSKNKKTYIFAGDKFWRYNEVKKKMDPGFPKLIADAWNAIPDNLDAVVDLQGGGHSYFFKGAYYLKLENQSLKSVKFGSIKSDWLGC
The protocol:
(§1) Several compounds and salts were analyzed in an in vitro assay to determine their ability to inhibit the MMP cleavage of peptide substrates. Inhibition constant (Ki) were calculated from the assayed compound-MMP interactions.
(§2) Human recombinant MMP-1, MMP-2, MMP-9, MMP-13, and MMP-14 were used in this assay. All enzymes were prepared in Assignee's laboratories following usual laboratory procedures. Protocols for the preparation and use of these enzymes are available in the scientific literature. See, e.g., Enzyme Nomenclature (Academic Press, San Diego, Calif., 1992) (and the citations therein). See also, Frije et al., J. Biol. Chem., 26(24), 16766-73 (1994).
The MMP-2 proenzyme was purified by gelatin Sepharose chromatography from MMP-2-transfected p2AHT2 cells provided by Dr. Gregory Goldberg of Washington University (St. Louis, Mo.).
(§3) All MMPs were activated using 4-aminophenylmercuric acetate (“APMA”, Sigma Chemical, St. Louis, Mo.) or trypsin. MMP-9 also was activated using human recombinant MMP-3 (purified in Assignee's laboratory following standard cloning and purification techniques).
(§4) The following fluorogenic, methoxycoumarin-containing polypeptide substrate (I) was used in the MMP inhibition assays: MCA-ArgProLeuGlyLeuDpaAlaArgGluArgNH2 (I) “MCA” is 7-methoxycoumarin-4-yl acetyl. Substrate (I) was prepared Assignee's laboratory. In the absence of MMP inhibitory activity, the substrate is cleaved at the Gly-Leu peptide bond. This cleavage separates the highly fluorogenic peptide from the 2,4-dinitrophenyl quencher, thus resulting in increase of fluorescent intensity.
(§5) The stock solutions of the assayed compounds and salts were prepared in […] (DMSO). These stock solutions were diluted in Buffer A (100 mM Tris-HCl, 100 mM NaCl, 10 mM CaCl2, 0.05% polyoxyethylene 23 lauryl ether, pH 7.5) to obtain solutions with different compound concentrations, i.e., assay solutions with different concentrations of the assayed […] compound. The experiment controls contained the same amount of Buffer A/DMSO as the assayed sample, but contained none of the tested compound or salt.
(§6) The assays from which the Ki determinations were made were performed as follows. The assayed compound samples were incubated in separate wells of untreated white polystyrene plates (Nunc Nalgene International, Rochester, N.Y.), and analyzed on a Tecan SpectraFlour Plus plate reader. The excitation wavelength was 330 nm, and the emission wavelength—420 nm. All samples (assayed compounds and controls) were incubated in separate plate wells at room temperature for 1 hr in the presence of 4 μM of MMP substrate (I). In the absence of MMP inhibitory activity, substrate (I) was cleaved at the Gly-Leu bond resulting in an increase of relative fluorescence. Inhibition was observed as a reduced rate of this increase in relative fluorescence. […] This protocol is a modification of method by Knight et al., FEBS Lett., 296(3), 263-266 (1992). Apparent inhibitory constants were determined by non-linear regression of reaction velocity as a function of inhibitor and enzyme concentration using Morrison's equation, as described by Kuzmic, Anal. Biochem. 286, 45-50 (2000). Modifications were made in the non-linear regression method to allow a common control reaction rate and effective enzyme concentration to be shared between all dose-response relationships on a given assay plate. Since the substrate concentration was chosen to be at or below the Km, the apparent Ki's from this analysis were reported as Ki's without correction for the influence of substrate.
(§7) The above protocols were used to determine Ki constants for the compounds in Examples 2-35 above. All Ki values in Table 1 are given in nM units.

For a further assay, the target named is T2, Human recombinant MMP-1 (Homo sapiens, UniProt P03956).
T2 construct: made in house; host or cells: MMP-1-transfected HT-1080 cells (spent media)
T2 sequence (P03956 100-469): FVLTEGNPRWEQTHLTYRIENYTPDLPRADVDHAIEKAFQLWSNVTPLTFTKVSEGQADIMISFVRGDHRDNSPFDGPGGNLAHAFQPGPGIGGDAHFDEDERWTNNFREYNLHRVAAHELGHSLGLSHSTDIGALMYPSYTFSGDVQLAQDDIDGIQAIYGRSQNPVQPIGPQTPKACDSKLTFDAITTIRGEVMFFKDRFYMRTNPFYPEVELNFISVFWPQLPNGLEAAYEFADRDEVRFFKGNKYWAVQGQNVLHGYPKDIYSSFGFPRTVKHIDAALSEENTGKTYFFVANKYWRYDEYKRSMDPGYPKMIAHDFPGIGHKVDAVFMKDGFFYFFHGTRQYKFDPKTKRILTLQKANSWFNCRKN
As to the method:
as §1, §2
The MMP-1 proenzyme was purified from the spent media of MMP-1-transfected HT-1080 cells provided by Dr. Harold Welgus of Washington University (St. Louis, Mo.). The protein was purified on a zinc chelating column.
as §3, §4, §5, §6, §7

The target in a further assay is T3, Human recombinant MMP-14 (Homo sapiens, UniProt P50281).
T3 construct: The catalytic domain enzyme was expressed in E. coli inclusion bodies, solubilized in urea; made in house
As to the method:
as §1, §2
The MMP-14 full length cDNA was provided by Dr. Gregory Goldberg of Washington University (St. Louis, Mo.). The catalytic domain enzyme was expressed in E. coli inclusion bodies, solubilized in urea, purified on a preparative […] reverse phase HPLC column, and then refolded in the presence of zinc acetate and purified for use.
as §3, §4, §5, §6, §7

Consider `COCC#Cc1cnc(-c2ccc(S(=O)(=O)C3(C(=O)NO)CCOCC3)cc2)cn1` [Example 164], for which the Ki on Human recombinant MMP-2 (Table 2) was 0.6 nM; on Human recombinant MMP-1 (Table 2) it was 2490 nM; on Human recombinant MMP-14 (Table 2), 152 nM.
As to `CC(F)(F)CCc1cnc(-c2ccc(S(=O)(=O)C3(C(=O)NO)CCN(C4CC4)CC3)cc2)cn1` [Example 66], the values for the Ki at Human recombinant MMP-2 (Table 1), on Human recombinant MMP-1 (Table 1) and on Human recombinant MMP-14 (Table 1) were 0.79 nM, greater than 10000 nM and 4260 nM, respectively.
As for `CCCCOc1ccc(-c2ccc(S(=O)(=O)C3(C(=O)NO)CCN(CCOC)CC3)cc2)cc1` [Example 119], the values for the Ki at Human recombinant MMP-2 (Table 2), on Human recombinant MMP-1 (Table 2) and at Human recombinant MMP-14 (Table 2) were 0.093 nM, 1770 nM and 171 nM, respectively.
The like results for `O=C(NO)C1(S(=O)(=O)c2ccc(-c3ccc(-n4ccnc4)cc3)cc2)CCOCC1` [Example 127] were, in that order, 0.147 nM, 1010 nM and 414 nM.
With `O=C(NO)C1(S(=O)(=O)c2ccc(-c3ccc(CCC(F)(F)C(F)(F)F)cc3)cc2)CCN(C2CC2)CC1` [Example 45], the Ki at Human recombinant MMP-2 (Table 1) was 0.55 nM; at Human recombinant MMP-1 (Table 1), greater than 10000 nM; on Human recombinant MMP-14 (Table 1), 1730 nM.
As to `O=C(NO)C1(S(=O)(=O)c2ccc(-c3ccc(CCC(F)(F)F)cc3)cc2)CCOCC1` [Example 161], the Ki at Human recombinant MMP-2 (Table 2) amounted to 0.15 nM; at Human recombinant MMP-1 (Table 2), 3350 nM; at Human recombinant MMP-14 (Table 2), 303 nM.
For `CCc1csc(Nc2ccc(-c3ccc(S(=O)(=O)C4(C(=O)NO)CCOCC4)cc3)cc2)n1` [Example 124], in that order: 32.9 nM, greater than 2500 nM and 6230 nM.
For the molecule `O=C(NO)C1(S(=O)(=O)c2ccc(-c3cnc(-c4cccs4)cn3)cc2)CCOCC1` [Example 160], the Ki was 2.01 nM at Human recombinant MMP-2 (Table 2), greater than 10000 nM on Human recombinant MMP-1 (Table 2) and greater than 10000 nM at Human recombinant MMP-14 (Table 2).
Regarding `CCCCc1ccc(-c2ccc(S(=O)(=O)C3(C(=O)NO)CCN(CC)CC3)cc2)cn1` [Example 139], the Ki was 9 nM on Human recombinant MMP-2 (Table 2), greater than 10000 nM at Human recombinant MMP-1 (Table 2) and greater than 10000 nM at Human recombinant MMP-14 (Table 2).
On to `CCN1CCC(C(=O)NO)(S(=O)(=O)c2ccc(-c3ccc(OCCCCO)cc3)cc2)CC1` [Example 118], for which the Ki on Human recombinant MMP-2 (Table 2) came to 0.146 nM; on Human recombinant MMP-1 (Table 2), 2170 nM; at Human recombinant MMP-14 (Table 2) it was 741 nM.
The like results for `O=C(NO)C1(S(=O)(=O)c2ccc(-c3ccc(CCC4CCCCC4)cn3)cc2)CCOCC1` [Example 129] were, in that order, 0.94 nM, 4410 nM and 745 nM.
For `O=C(NO)C1(S(=O)(=O)c2ccc(-c3ncc(CCC(F)(F)C(F)(F)F)cn3)cc2)CCOCC1` [Example 137], in that order: 2.72 nM, greater than 10000 nM and 2870 nM.
For `O=C(NO)C1(S(=O)(=O)c2ccc(-c3cscc3-c3ccc(F)cc3)cc2)CCOCC1` [Example 132], in that order: 153 nM, greater than 10000 nM and 3170 nM.
In the case of `O=C(NO)C1(S(=O)(=O)c2ccc(-c3ccc(OC(F)(F)C(F)F)cc3)cc2)CCOCC1` [Example 68], the figures for the Ki on Human recombinant MMP-2 (Table 1), at Human recombinant MMP-1 (Table 1) and on Human recombinant MMP-14 (Table 1) were 0.0611 nM, 231 nM and 235 nM, respectively.
Consider `CC(C)(C)CCNc1cnc(-c2ccc(S(=O)(=O)C3(C(=O)NO)CCOCC3)cc2)cn1` [Example 130], for which the Ki on Human recombinant MMP-2 (Table 2) is 14.2 nM; on Human recombinant MMP-1 (Table 2), greater than 1250 nM; at Human recombinant MMP-14 (Table 2), greater than 1250 nM.
Turning to `CC(F)(F)CCc1ccc(-c2ccc(S(=O)(=O)C3(C(=O)NO)CCN(C4CC4)CC3)cc2)cc1` [Example 59], the Ki on Human recombinant MMP-2 (Table 1) was 0.11 nM; on Human recombinant MMP-1 (Table 1), 2170 nM; on Human recombinant MMP-14 (Table 1), 390 nM.
For `O=C(NO)C1(S(=O)(=O)c2ccc(-c3ccc(OC(F)(F)C(F)F)cc3)cc2)CCN(CCl)CC1` [Example 38], in that order: 0.037 nM, 650 nM and 446 nM.
With `O=CN1CCC(C(=O)NO)(S(=O)(=O)c2ccc(-c3ccc(CCCC(F)(F)F)cn3)cc2)CC1` [Example 159], the figures for the Ki on Human recombinant MMP-2 (Table 2), on Human recombinant MMP-1 (Table 2) and on Human recombinant MMP-14 (Table 2) were 0.1 nM, 3480 nM and 599 nM, respectively.
